Measured values: patent publication US20190083449A1, “COMBINATION THERAPY WITH AN ANTI-HYALURONAN AGENT AND THERAPEUTIC AGENT” (Halozyme, Inc., priority 2012, published 2019)

Columns and labels:
cytidine deaminase = target: T1, cytidine deaminase (Homo sapiens, UniProt P32320); conditions: cited from earlier work; for Km: enzyme purified from human liver
T1 construct: for the enzyme purified from human liver; from tissue; host or cells: human liver

[1] = route (IV or PO); cited from earlier work
[2] = tested on: BxPC3 pancreatic cancer cell line; assay: Median survival time to endpoint in BxPC3 xenograft model; type: in vivo, mouse; conditions: three four-week dosing cycles; PEGPH20 4.5 mg/mL, nab-paclitaxel 10 mg/kg, gemcitabine 180 mg/kg; endpoint tumor >2000 mm^3, >20% bodyweight loss, duress or death
Procedure: Following the first four week dosing cycle as set forth in part A, the dosing cycle was repeated two times and time to survival endpoint was followed over time. Briefly, in each dosing cycle, animals were treated with vehicle or PEGPH20 (4.5 mg/mL) with or without nab-paclitaxel (10 mg/kg) intravenously twice a week for four weeks. In each cycle, groups receiving gemcitabine were administered gemcitabine (180 mg/kg) 24 hours after PEGPH20 and/or nab-paclitaxel every 7 days for three weeks of the dose cycle. Time to survival endpoint, a surrogate of animal survival, was defined as (a) time to tumor volume of greater than 2000 mm^3, (b) time to a greater than 20% bodyweight loss, or (c) time to animal duress or death.

[3] = tested on: carcinoembryonic antigen (CEA); assay: Serum CEA tumor biomarker ELISA in BxPC3 xenograft model; type: in vivo, mouse; conditions: day 20 of first dosing cycle
Procedure: (§1) Biomarkers carbohydrate antigen 19-9 (CA19-9) and carcinoembryonic antigen (CEA) associated with pancreatic cancer were tested to measure therapeutic response. Animals were treated as described in part A. Serum was collected from satellite animals (n≤3) from each group on day 0, 6, 13 and 20 of the first dosing cycle. Human CA19-9 was measured using a CA 19-9 ELISA kit (Catalog No. CA199T, Calbiotech, Spring Valley, Calif.) and CEA tumor antigen was measured using a CEA ELISA kit (Catalog No. CE062T, Calbiotech, Spring Valley, Calif.).

[4] = tested on: BxPC3 pancreatic cancer cell line; assay: Tumor growth inhibition in BxPC3 xenograft model, PEGPH20, nab-paclitaxel and/or gemcitabine; type: in vivo, mouse
Procedure: The human pancreatic cancer xenograft model described in Example 1 was used to evaluate the antitumor effects of PEGPH20 and nab-paclitaxel combination therapy in further combination with gemcitabine treatment. Prior to performing the study, a route and dose level for gemcitabine was selected based. […] The results are depicted in FIG. 2. […] Gemcitabine was administered intraperitoneally 24 hours after PEGPH20 and/or nab-paclitaxel every 7 days for three weeks of the dose cycle. […] The results are depicted in FIG. 3. […] Table 6 depicts the results as the percentage growth inhibition relative to vehicle as determined from tumor volume measurements at day 26.

pancreatic cancer = conditions: cited from earlier work
[5] = rapid deamination by deoxycytidine deaminase to dFdU; cited from earlier work
[6] = tested on: carbohydrate antigen 19-9 (CA19-9); assay: Serum CA19-9 tumor biomarker ELISA in BxPC3 xenograft model; type: in vivo, mouse; conditions: day 20 of first dosing cycle
Procedure: as §1

B16 melanoma model = conditions: oral administration at 600 mg/kg/d; cited from earlier work

T1 sequence (P32320 whole entry): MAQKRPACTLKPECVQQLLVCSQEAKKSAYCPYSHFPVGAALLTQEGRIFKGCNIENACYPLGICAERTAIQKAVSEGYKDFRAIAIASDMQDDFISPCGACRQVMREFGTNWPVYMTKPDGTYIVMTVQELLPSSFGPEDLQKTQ

Nc1ncn([C@H]2C[C@H](O)[C@@H](CO)O2)c(=O)n1 [decitabine, 5-aza-2′-deoxycytidine]
Km (cytidine deaminase): 250 µM

C[C@H]1C[C@@H]2[C@H]([C@@H](O)C[C@@]3(C)[C@H]2CC[C@]3(O)C(=O)COC(=O)CCC(=O)O)[C@@]2(C)C=CC(=O)C=C12 [Methylprednisolone sodium succinate]
Equivalent Potency [1]: 4 mg

C[C@]12C=CC(=O)C=C1CC[C@@H]1[C@@H]2[C@@H](O)C[C@@]2(C)[C@H]1CC[C@]2(O)C(=O)CO [Prednisolone]
Equivalent Potency [1]: 5 mg

Nc1ccn([C@@H]2O[C@H](CO)[C@@H](O)C2(F)F)c(=O)n1 [gemcitabine, 2′-deoxy-2′,2′-difluorocytidine]
Median Survival Time [2]: 38 days | level of CEA marker in serum [3]: approximately 15 ng/mL | Tumor Growth Inhibition (% of vehicle control) ([4]; day 26, PEGPH20 4.5 mg/kg i.v. 2x/wk, nab-paclitaxel 10 mg/kg i.v. 2x/wk, gemcitabine 180 mg/kg i.p. weekly): 25% | antitumor activity (in words) ([4]; four week dose cycle, FIG. 3): some antitumor activity | tumor growth compared to vehicle only (in words) ([4]; gemcitabine 60, 120, 180 and 240 mg/kg once a week (day 0, 7, 14, 21)): inhibited tumor growth at all doses tested | survival compared to patients who had surgery alone (pancreatic cancer; adjuvant setting): increased survival by two months | median survival (pancreatic cancer; gemcitabine monotherapy): over 5 months | half-life in plasma [5]: approximately 10 minutes | level of CA19-9 marker in serum [6]: approximately similar to vehicle only control

C[C@]12CCC(=O)C=C1CC[C@@H]1[C@@H]2[C@@H](O)C[C@@]2(C)[C@H]1CC[C@]2(O)C(=O)CO [Hydrocortisone]
Equivalent Potency [1]: 20 mg

Nc1ccn([C@H]2C[C@H](O)[C@@H](CO)O2)c(=O)n1 [deoxycytidine]
rate of deamination relative to decitabine (cytidine deaminase; at equal concentrations): about 6 fold | Km (cytidine deaminase): 12 µM

Cc1cc(=O)oc2cc(O)ccc12 [4-MU, 7-hydroxy-4-methylcoumarin]
reduction of metastases (B16 melanoma model): 64%
